Here are results for seven molecules from paper PMC7199972 (PLoS ONE, 2020).

Residues, ends and D or L forms follow the SMILES beside them. Some results are limits rather than exact numbers.

Series [1] can be described thus: Plasma stability of TA/SA γ-MSH peptides in reconstituted human plasma. Particulars: 37°C. It counts as in vitro ADME. Here is the method: For studies on the plasma stability of TA/SA γ-MSH, lyophilized citrated plasma from a pool of human donors was reconstituted in H2O as indicated by the manufacturer (# P9523, Sigma-Aldrich Chemie GmbH). Stability of human γ-MSH peptides was evaluated in fresh frozen human plasma (Interregional Blood Transfusion Swiss Red Cross Ltd, Epalinges, Swizerland). To this end, pooled samples of complete EDTA blood were centrifuged for 10 min at 1300 g, plasma was separated from buffy coat and erythrocytes and cleared by an additional 10 min centrifugation step at 1300 g. Cerebrospinal fluid pooled from ≥ 3 human donors was provided in liquid phase (# 991-19-P, Lee Biosolutions Inc., Maryland Heights, MO, USA). Aliquots of both body fluids were stored at -80°C until use. Samples of reconstituted plasma or CSF were thawed on ice, the pH of fresh frozen plasma was adjusted to 7.4 by addition of triethanolamine to a final concentration of 50 mM, and 45 μl aliquots were distributed to 1.5 ml Protein LoBind Tubes (Eppendorf AG, Hamburg, Germany). The γ-MSH synthetic peptides were pre-diluted in H2O to 20 μM, and 5 μl each were added on ice to 45 μl pre-laid samples of plasma or CSF. The γ-MSH starting concentration in degradation assays was thus 2 μM. Immediately after mixing, a first 5 μl aliquot for time point zero was removed, tubes were then transferred to a 37°C heat block, and further 5 μl aliquots were collected from plasma and CSF samples after various incubation times up to 68 h and 72.5 h, respectively. For control purposes, γ-MSH peptides were also diluted in H2O to a concentration of 2 μM and aliquots were removed after the corresponding incubation times at 37°C. All collected 5 μl aliquots were immediately diluted in 45 μl H2O and frozen on dry ice in 96 well V-bottom non-binding microplates (Greiner Bio-One Vacuette Schweiz GmbH, St. Gallen, Schweiz) to stop further degradation. After completion of degradation time courses, collection plates were stored at -80°C.
(§1) The residual TA/SA or human γ-MSH signaling activities were simultaneously analyzed on Glo-sensor and TA or human MC3R transfected HEK293T cells, respectively. […] Maximal luminescence values for the residual γ-MSH ligand activities were determined for all time points in the degradation time course, were baseline subtracted and normalized to the maximal luminescence value at time point zero for the same ligand in the same plate. All degradation time courses were performed in triplicate and read on three separate 96 well plates. […] Degradation curves were established by non-linear regression curve fit (least square fit) and half-lives determined from one phase decay curves. […]

The nature of series [2]: supernatants of mock-transfected HEK293T cells (IRES GFP-plasmid only). Particulars: human (HEK293T).
The subject of series [3] is TA PC1/3. As to the kind of experiment: supernatants of HEK293T cells transfected with TA PCSK1 plasmid, 5 mM CaCl2, pH 5.5 (pH 4.1 to 8.1). Particulars: human (HEK293T); Tyto alba alba enzyme.
The subject of series [4] is TA PC2 (with mouse 7B2). Briefly: supernatants of HEK293T cells transfected with TA PCSK2 and mouse 7B2 plasmids, 5 mM CaCl2, pH 5.5 (pH 4.1 to 8.1). Particulars: human (HEK293T); Tyto alba alba enzyme.
Series [5] is described as follows: Cerebrospinal fluid pooled from ≥ 3 human donors. The settings on record: 37°C, up to 72.5 h.
A short description of series [6]: Cerebrospinal fluid stability of γ-MSH peptides. The settings on record: pooled human CSF, 2 μM peptide, 37°C, up to 72 h, residual cAMP signaling on TA MC3R. The class given is in vitro ADME. Here is the method: (§2) For studies on the plasma stability of TA/SA γ-MSH, lyophilized citrated plasma from a pool of human donors was reconstituted in H2O as indicated by the manufacturer (# P9523, Sigma-Aldrich Chemie GmbH). Stability of human γ-MSH peptides was evaluated in fresh frozen human plasma (Interregional Blood Transfusion Swiss Red Cross Ltd, Epalinges, Swizerland). To this end, pooled samples of complete EDTA blood were centrifuged for 10 min at 1300 g, plasma was separated from buffy coat and erythrocytes and cleared by an additional 10 min centrifugation step at 1300 g. Cerebrospinal fluid pooled from ≥ 3 human donors was provided in liquid phase (# 991-19-P, Lee Biosolutions Inc., Maryland Heights, MO, USA). […]
as §1

Series [7] in a line: Plasma stability of human γ-MSH peptides in fresh frozen human plasma. It counts as in vitro ADME. Particulars: 37°C, non-glycosylated synthetic peptides. Here is the method: as §2, §1

Consider `CSCC[C@H](NC(=O)[C@@H](NC(=O)[C@@H](N)Cc1ccc(O)cc1)C(C)C)C(=O)N[C@@H](CO)C(=O)N[C@@H](Cc1c[nH]cn1)C(=O)N[C@@H](Cc1ccccc1)C(=O)N[C@@H](CCCNC(=N)N)C(=O)N[C@@H](Cc1c[nH]c2ccccc12)C(=O)N[C@@H](CC(N)=O)C(=O)N[C@@H](CCCCN)C(=O)N[C@@H](Cc1ccccc1)C(=O)NCC(=O)N[C@@H](CCCNC(=N)N)C(=O)N[C@@H](CCCNC(=N)N)C(=O)N[C@@H](CC(N)=O)C(=O)N[C@@H](CO)C(=O)N[C@@H](CO)C(=O)N[C@@H](CO)C(=O)N[C@@H](CO)C(=O)N[C@@H](CO)C(=O)N[C@@H](CO)C(=O)N[C@@H](CO)C(=O)N[C@@H](CO)C(=O)N[C@@H](CO)C(=O)N[C@@H](CO)C(=O)N[C@@H](CO)C(=O)N[C@@H](CO)C(=O)N[C@@H](CO)C(=O)NCC(=O)NCC(=O)N[C@@H](Cc1c[nH]cn1)C(=O)O` [TA γ3-MSH 13 S] (H-YVMSHFRWNKFGRRNSSSSSSSSSSSSSGGH-OH), for which, in series [1] (reconstituted human plasma), the “plasma half-life, fold longer than that of γ2-MSH” value stood at 70 fold and the “plasma half-life, fold longer than that of γ3-MSH containing 5 serines” value is more than 6 fold. Moreover, in series [1] (reconstituted lyophilized citrated pooled human plasma, 2 μM peptide, up to 68 h, residual cAMP signaling on TA MC3R/Glo-sensor HEK293T (luminescence), one-phase decay, triplicate), the “plasma half-life (t1/2)” value is on record as more than 30 h.
“Pyr-ERTKR-AMC (L-pyroglutamyl-(arginine-threonine-lysine-arginine)-7-amino-3-methylcoumarin)”: in series [2], the not cleaved entry is recorded as “no activity across the entire pH range”. Also, the cleaved bond entry in series [3] and in series [4] was “R-AMC” throughout.
For the molecule YVMSHFRWNKFGRRNSSSSSSSSSSSSSGGH, the not cleaved result in series [5] is “completely stable in CSF (up to 72 h)”.
In series [1] (reconstituted pooled human plasma, 2 μM peptide, residual cAMP signaling on TA MC3R, one-phase decay, triplicate), `CSCC[C@H](NC(=O)[C@@H](NC(=O)[C@@H](N)Cc1ccc(O)cc1)C(C)C)C(=O)N[C@@H](CO)C(=O)N[C@@H](Cc1c[nH]cn1)C(=O)N[C@@H](Cc1ccccc1)C(=O)N[C@@H](CCCNC(=N)N)C(=O)N[C@@H](Cc1c[nH]c2ccccc12)C(=O)N[C@@H](CC(N)=O)C(=O)N[C@@H](CCCCN)C(=O)N[C@@H](Cc1ccccc1)C(=O)NCC(N)=O` [SA / TA γ2-MSH] (H-YVMSHFRWNKFG-NH2) had a plasma half-life of 0.45 h. For the same molecule, in series [6], the “half-life in human CSF” value was more than 7.5 h. For the same molecule, the “stability in human cerebrospinal fluid” value in series [6] (triplicate) is recorded as “stable for several hours”.
For YVMSHFRWNKFGRRNSSSSSGGH, the not cleaved result in series [5] is reported as “completely stable in CSF (up to 72 h)”.
For the molecule `CSCC[C@H](NC(=O)[C@@H](NC(=O)[C@@H](N)Cc1ccc(O)cc1)C(C)C)C(=O)NCC(=O)N[C@@H](Cc1c[nH]cn1)C(=O)N[C@@H](Cc1ccccc1)C(=O)N[C@@H](CCCNC(=N)N)C(=O)N[C@@H](Cc1c[nH]c2ccccc12)C(=O)N[C@@H](CC(=O)O)C(=O)N[C@@H](CCCNC(=N)N)C(=O)N[C@@H](Cc1ccccc1)C(=O)NCC(=O)N[C@@H](CCCNC(=N)N)C(=O)N[C@@H](CCCNC(=N)N)C(=O)N[C@@H](CC(N)=O)C(=O)N[C@@H](CO)C(=O)N[C@@H](CO)C(=O)N[C@@H](CO)C(=O)N[C@@H](CO)C(=O)NCC(=O)N[C@@H](CO)C(=O)N[C@@H](CO)C(=O)NCC(=O)N[C@@H](C)C(=O)NCC(=O)N[C@@H](CCC(N)=O)C(=O)O` [human γ3-MSH (wt)] (H-YVMGHFRWDRFGRRNSSSSGSSGAGQ-OH), the “plasma stability, fold increased over human γ2-MSH” value in series [7] is recorded as more than 100 fold.
With YVMSHFRWNKFGRRNSSSSSSSSSSSSSSSSSSGGH, in series [5], the not cleaved entry is “completely stable in CSF (up to 72 h)”.
